Where a name gives a salt, the structure may show the parent alone.
Key:
MASP-2 (CCP1-CCP2-SP) = target: T1, MASP-2 (CCP1-CCP2-SP) (Homo sapiens, UniProt O00187); assay: Enzymatic assay for MASP-2 inhibitory activity (fluorogenic substrate); type: biochemical
T1 construct: 15 μL of Enzyme MASP-2 (CCP1-CCP2-SP) in Assay Buffer
Outline: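 Fluorescence was normalized between no-enzyme and DMSO-only controls to derive % activity, with IC50 taken as equivalent to Ki except for tight-binding inhibitors. Reactions ran 20 min at room temperature in HEPES pH 7.4/NaCl/Tween 20 buffer, using the C2-derived fluorogenic substrate, before acetic acid stop.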

human α-thrombin = target: T2, human α-thrombin (Homo sapiens, UniProt P00734); assay: Enzymatic assay for thrombin (fluorogenic peptide substrate Boc-VPR-AMC); type: biochemical
T2 construct: enzyme (human α-thrombin (BioPharm® Lab.)) in assay buffer; purchased BioPharm® Lab
Outline: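 Assay conditions kept the reaction linear in time, enzyme and substrate, so IC50 approximated Ki apart from tight- or slow-binding cases. Boc-VPR-AMC cleavage by human α-thrombin proceeded 20 min at room temperature in Hepes pH 7.4/NaCl/Tween 20 buffer, then was acid-quenched and read by fluorescence.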

T1 sequence (O00187 445-686 limits assumed): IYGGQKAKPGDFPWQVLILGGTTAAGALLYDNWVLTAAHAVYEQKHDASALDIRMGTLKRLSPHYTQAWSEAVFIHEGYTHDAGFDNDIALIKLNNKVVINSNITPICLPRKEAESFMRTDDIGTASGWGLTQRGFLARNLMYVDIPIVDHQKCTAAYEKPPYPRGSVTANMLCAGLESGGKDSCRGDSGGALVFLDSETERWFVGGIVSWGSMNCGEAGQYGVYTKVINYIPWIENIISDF
T1 sequence (O00187 287-444 partner limits assumed): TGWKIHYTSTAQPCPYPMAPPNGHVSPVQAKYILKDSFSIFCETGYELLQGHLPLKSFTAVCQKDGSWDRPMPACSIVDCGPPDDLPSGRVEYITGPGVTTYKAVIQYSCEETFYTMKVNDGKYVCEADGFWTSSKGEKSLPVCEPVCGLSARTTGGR

Ki (MASP-2 (CCP1-CCP2-SP)) [nM] | Ki (human α-thrombin) [nM] | SMILES
< 500 | < 500 | CC(C)(C)[C@@H](Nc1ncc2n(c1=O)[C@H](C(=O)NCc1cc3c(s1)CNC3)CC2)c1ccc(F)cc1 [Compound 280, (S)—N-((5,6-dihydro-4H-thieno[2,3-c]pyrrol-2-yl)methyl)-3-(((R)-1-(4-fluorophenyl)-2,2-dimethylpropyl)amino)-4-oxo-4,6,7,8-tetrahydropyrrolo[1,2-a]pyrazine-6-carboxamide]
< 500 | 500 to 2500 | Cc1cc(C)cc(CNc2ncc3n(c2=O)[C@H](C(=O)NCc2ccc4[nH]ncc4c2)CC3)c1 [Compound 281, (S)—N-((1H-indazol-5-yl)methyl)-3-((3,5-dimethylbenzyl)amino)-4-oxo-4,6,7,8-tetrahydropyrrolo[1,2-a]pyrazine-6-carboxamide]
500 to 2500 | 2500 to 10000 | Cc1cc(C)cc(CNc2ncc3n(c2=O)[C@H](C(=O)NCc2cccc4[nH]ncc24)CC3)c1 [Compound 282, (S)-N-((1H-indazol-4-yl)methyl)-3-((3,5-dimethylbenzyl)amino)-4-oxo-4,6,7,8-tetrahydropyrrolo[1,2-a]pyrazine-6-carboxamide]
< 500 | < 500 | Cc1cc(C)cc(CNc2ncc3n(c2=O)[C@H](C(=O)NCc2cc(Cl)ccc2-n2cnnn2)CC3)c1 [Compound 284, (S)-N-(5-chloro-2-(1H-tetrazol-1-yl)benzyl)-3-((3,5-dimethylbenzyl)amino)-4-oxo-4,6,7,8-tetrahydropyrrolo[1,2-a]pyrazine-6-carboxamide]
< 500 | 500 to 2500 | O=C(NCc1cc2c(s1)CNC2)[C@@H]1CCc2cnc(NCc3cccc(-c4ccccc4)c3)c(=O)n21 [Compound 285, (S)-3-(([1,1′-biphenyl]-3-ylmethyl)amino)-N-((5,6-dihydro-4H-thieno[2,3-c]pyrrol-2-yl)methyl)-4-oxo-4,6,7,8-tetrahydropyrrolo[1,2-a]pyrazine-6-carboxamide trifluoroacetate]
< 500 | 500 to 2500 | Cc1ccccc1CNc1ncc2n(c1=O)[C@H](C(=O)NCc1cc3c(s1)CNC3)CC2 [Compound 286, trifluoroacetate]
